Test results as given in US11253527B2, “Method and composition for inhibiting virus infection” (priority 2019, dated 2022).

What was measured:
[1] = system: Oral epithelial cells (OC3); experiment: MTT cell viability of mock- or HSV-1-infected oral epithelial cells (OC3); type: cell-based
Procedure: FIG. 4 provides Experimental conditions for evaluation of the effects of Antrodia camphorata fruit body extracts on oral epithelial cells during HSV-1 infection. Three experimental conditions, including no-treatment, pre-treatment and post-treatment were performed. Oral epithelial cells (OC3) were pre-treated with media only or media containing each Antrodia camphorata extracts for 2 hours, followed by HSV-1 inoculation. Cells were infected with HSV-1 viruses at multiplicity of infection (MOI) of 5 or mock infected for 1 hour at 37° C. for viral entry to occur. Antrodia camphorata extracts were not added during viral inoculation for 1 hour to avoid of its direct effects on virions. Mock- or HSV-1-infected cells were further incubated in the absence or presence of the drug for 19 hours.
The oral epithelial cell line (OC3) was used to determine the possible effects of Antrodia camphorata extracts on oral epithelial cells during HSV-1 infection. Cell monolayers were treated as illustrated in FIG. 4 (please also see details in the Materials and Methods section). Three experimental conditions, including no-treatment, pre-treatment and post-treatment were performed. Whether these Antrodia camphorata extracts have effects before or after viral infection were examined. The effects of Antrodia camphorata extracts on viral propagation (viral yields) in infected oral epithelial cells were examined. At 19-20 h post infection, viral yields in the supernatants were determined using the plaque assay. Viability of treated cells was also determined using the MTT assay for the mitochondrial dehydrogenase activity. Moreover, purified HSV-1 virions were directly treated with Antrodia camphorata extracts to examine whether Antrodia camphorata extracts exert anti-HSV-1 activity directly on virus particles before viral entry. […]
The mitochondrial dehydrogenase activity of treated cells was evaluated using the FBS-free medium containing 1 mg/ml of 3-[4,5-dimethylthiazol-2-yl]-2,5 diphenyltetrazolium bromide (MTT). […]

HepG2.2.15 cells = experiment: MTT cell viability, HepG2.2.15 cells; settings: 48 h, 50 μg/ml

C=C(CC[C@@H](C)[C@H]1CC[C@H]2C3=C(C(=O)C[C@]12C)[C@@]1(C)CCC(O)[C@](C)(O)C1CC3O)C(C)C(=O)O (some centres unmarked) [A4, antcin K]
viability of mock-infected cells or HSV-1 infected cells [1]: not affected evidently | toxic effect (MTT cell viability) (HepG2.2.15 cells): little or no toxic effect
